# Columns and labels:
# Format in all cases: physicochemical
# [1] = Percentage increase of mass of amine compound left to stand in air (absorption of carbon dioxide); settings: 23° C. and 50% RH
# Excerpt: Percentage increase of mass of cyclic amine compound (a1) [% by mass]=100×amount of increase of mass of cyclic amine compound (a1)(g)/(mass of cyclic amine compound (a1)(g)+amount of increase of mass of cyclic amine compound (a1)(g)).
# […] By doing so 1,3-BAC and carbon dioxide in the air were reacted to give a blowing agent (carbonate of 1,3-BAC). At that stage, to suppress uneven reaction, the container in which the amine compound was placed was shaken as necessary so as not to leave unreacted 1,3-BAC.
# Next, the amount of increase of the mass of 1,3-BAC was measured and the percentage increase of the mass of the amine compound was calculated by the following equation.
# [2] = Amine value of amine compound (JIS K7237-1995 titration); settings: titration with 0.1 N perchloric acid-acetic acid
# Method: The amine value was measured by the following measurement method according to JIS K7237-1995. • (1) 0.1 g of the amine compound was dissolved in 20 mL of acetic acid. • (2) The amine value was calculated by titrating the solution prepared in (1) above with 0.1 N perchloric acid-acetic acid solution using an automatic potentiometric titrator (AT-610 made by Kyoto Electronics Manufacturing Co., Ltd.)
# [3] = Maximum endothermic temperature of amine compound (DTA); settings: heating rate 10° C./minute, 23 to 350° C., nitrogen; evaporation of amine compound
# Method: The cyclic amine compound (a1) is heated at a heating rate of 10° C./minute from 23° C. to 350° C. and the temperature at which the amount of heat absorbed due to evaporation of the amine compound (a1) reaches the maximum is measured, and the temperature is defined as the maximum endothermic temperature of the amine compound (a1).
# The maximum endothermic temperature of the amine compound was measured by subjecting the amine compound to DTA as described below. First, […] of the amine compound was performed under conditions of a temperature range of 23 to 350° C., a heating rate of 10° C./minute and a nitrogen atmosphere using a differential thermogravimeter (product name DTG-60 made by Shimadzu Corporation). The temperature at which the amount of heat absorbed due to the evaporation of the amine compound was the maximum was calculated from the DTA curve obtained, and the temperature was determined as the maximum endothermic temperature of the amine compound.
# [4] = Acid dissociation constant (pKa) of amine compound (potentiometric titration); settings: in purified water, 25±2° C.
# Method: The acid dissociation constant of the amine compound was measured by the following measurement method. • (1) 0.2 g of the amine compound was dissolved in 30 mL of purified water. • (2) The acid dissociation constant (pKa) was calculated by titrating the solution prepared in (1) above with 0.1 N perchloric acid-acetic acid solution using an automatic potentiometric titrator (AT-610 made by Kyoto Electronics Manufacturing Co., Ltd.). The temperature in the measurement was 25±2° C.
# [5] = Maximum carbon dioxide (CO2) release temperature of amine compound (DSC after CO2 absorption in air); settings: amine compound after 24 hours in air at 23° C. and 50% RH; heating rate 10° C./minute, 23 to 250° C., nitrogen
# Method: The cyclic amine compound (a1) with carbon dioxide absorbed is heated at a heating rate of 10° C./minute from 23° C. to 250° C., and the temperature at which the amount of heat absorbed due to desorption of carbon dioxide reaches the maximum is measured, and the temperature is defined as the maximum carbon dioxide release temperature. In this regard the cyclic amine compound (a1) with carbon dioxide absorbed may be prepared by leaving 5 mmol of the cyclic amine compound (a1) to stand in air at 23° C. and 50% RH for 24 hours.
# A carbon dioxide detector and a Petri dish were placed in an openable desiccator (inner dimension: 370 mm×260 mm×272 mm). […]
# Then the amine compound was taken out of the desiccator to give an amine compound with carbon dioxide absorbed. The maximum carbon dioxide release temperature of the amine compound with carbon dioxide absorbed was measured by subjecting the amine compound to DSC as described below. […] The temperature at which the amount of heat absorbed due to the desorption of carbon dioxide was the maximum was calculated from the DSC curve obtained, and the temperature was determined as the maximum carbon dioxide release temperature of the amine compound.
SMILES,Percentage increase of mass ([1]; CO2 absorption time 10 weeks),Amine value [2],Maximum endothermic temperature [3],pKa [4],Percentage increase of mass ([1]; CO2 absorption time 1 week),Maximum CO2 release temperature [5]
"NCC1CCCC(CN)C1 (stereo not shown) [1,3-BAC, 1,3-bis(aminomethyl)cyclohexane]",22.5 % by mass,789 mgKOH/g,–,–,–,–
"NCCN [Ethylenediamine, ethylenediamine]",–,–,126.7 °C,9.8,44.3 % by mass,103.4 °C
"NCc1cccc(CN)c1 [MXDA, metaxylylenediamine]",–,824 mgKOH/g,–,–,–,–

# Source: patent US20250215177A1, “BLOWING AGENT, FOAMING RESIN COMPOSITION, POLYUREA RESIN FOAM, AND PRODUCTION METHOD FOR POLYUREA RESIN FOAM” (MITSUBISHI GAS CHEMICAL COMPANY, INC., priority 2022, published 2025)
